Source: ChEMBL document CHEMBL3046130, “Apteniols AF, oxyneolignans from the leaves of Aptenia cordifolia” (Tetrahedron, 2005)
Activity calls are given as the source filed them. The calls are words filed in the database; no cut-off is given here.

Key:
[1] = tested on: Lactuca sativa; experiment: Phytotoxicity against Lactuca sativa (lettuce) assessed as reduction of shoot elongation at 10^-7 M measured daily for 5 days relative to control; assay type: functional, organism-based
[2] = tested on: Lactuca sativa; experiment: Phytotoxicity against Lactuca sativa (lettuce) assessed as reduction of root elongation at 10^-4 M measured daily for 5 days relative to control; assay type: functional; set-up: scale not given: the % may be the effect or the level left
[3] = tested on: Lactuca sativa; experiment: Phytotoxicity against Lactuca sativa (lettuce) assessed as reduction of seed germination measured daily for 5 days relative to control; assay type: functional, organism-based
[4] = tested on: Lactuca sativa; experiment: Phytotoxicity against Lactuca sativa (lettuce) assessed as reduction of seed germination at 10^-5 M measured daily for 5 days relative to control; assay type: functional; set-up: scale not given: the % may be the effect or the level left
[5] = tested on: Lactuca sativa; experiment: Stimulation of root elongation in Lactuca sativa (lettuce) at 10^-7 M measured daily for 5 days relative to control; assay type: organism-based; settings: in vivo, 120 h, 0.1 µM

Activity [5] [%] | Compound | Activity [1] | Activity [2] | Activity [3] | Activity [4] [%]
– | O=C(O)CCc1ccc(Oc2ccc(CCC(=O)O)cc2)cc1 [APTENIOL A] | inactive | 40% | Dose-dependent effect | 25
20 | COc1cc(CCC(=O)O)ccc1Oc1ccc(CCC(=O)O)cc1 [APTENIOL B] | – | 20% | Dose-dependent effect | 25
– | COC(=O)CCc1ccc(Oc2ccc(CCC(=O)OC)cc2OC)cc1 [APTENIOL C] | inactive | inactive | Dose-dependent effect | 25
– | COc1cc(CCC(=O)O)ccc1Oc1c(OC)cc(CCC(=O)O)cc1OC [APTENIOL D] | – | 20% | Dose-dependent effect | 25
20 | COc1cc(CCC(=O)O)cc(OC)c1Oc1c(OC)cc(CCC(=O)O)cc1OC [APTENIOL E] | – | 20% | Dose-dependent effect | 25
– | COc1cc(CCC(=O)O)ccc1Oc1ccccc1CCC(=O)O [APTENIOL F] | inactive | 20% | Dose-dependent effect | 25
